Experimental data from paper PMC12714728, “VHH antibody loop guides design of a synthetic macrocyclic peptide that potently blocks influenza virus membrane fusion” (npj Viruses, 2025).
Non-standard residues stand in square brackets, D forms with d. Residues, ends and D or L forms follow the SMILES beside them. ξ: configuration not given here. ξhhPhe = NC(CCCc1ccccc1)C(=O)O; dAbu = CC[C@@H](N)C(=O)O

Assays:
[1] = system: H1N1 A/Brisbane/59/2007 (H1/Bri) HA; format: biochemical, influenza A virus; conditions: pH 5.25
[2] = system: H1/NCa HA (A/New Caledonia/20/1999 (H1N1)); format: binding, influenza A virus
[3] = system: H1/Cal HA (A/California/07/2009 (H1N1)); format: binding, influenza A virus
[4] = system: H5/Viet HA (A/Vietnam/1203/2004 (H5N1)); format: binding, influenza A virus
[5] = In vitro cell permeability assay; conditions: for Papp B→A at 120 min, 5 µM: LLC-Parent, basolateral to apical
P-gp (MDR1) = test: In vitro cell permeability / P-gp substrate assay; conditions: pig; for Papp A→B at 120 min, 5 µM: LLC-MDR1, apical to basolateral; for Papp B→A at 120 min, 5 µM: LLC-MDR1, basolateral to apical

Row | SMILES | IC50 [1] [µM] | IC50 [2] [nM] | IC50 [3] [nM] | IC50 [4] [µM] | recovery ([5]; LLC-PK1) [%] | Papp A→B at 120 min, 5 µM ([5]; pig, LLC-PK1, pH 7.4) [×10⁻⁶ cm/s] | Papp B→A at 120 min, 5 µM ([5]; pig, LLC-PK1, pH 7.4, Papp BA, no inhibitor) [×10⁻⁶ cm/s] | Papp B→A at 120 min, 5 µM ([5]; pig, LLC-PK1, pH 7.4, with 5 µM GF120918 (elacridar), Papp BA, + 5 µM GF120918) [×10⁻⁶ cm/s] | Papp A→B at 120 min, 5 µM (P-gp (MDR1); LLC-PK1, pH 7.4, Papp AB, no inhibitor) [×10⁻⁶ cm/s] | Papp B→A at 120 min, 5 µM (P-gp (MDR1); LLC-PK1, pH 7.4, Papp BA, no inhibitor) [×10⁻⁶ cm/s] | Papp A→B at 120 min, 5 µM (P-gp (MDR1); LLC-PK1, pH 7.4, with 5 µM GF120918 (elacridar), Papp AB, + 5 µM GF120918) [×10⁻⁶ cm/s] | Papp B→A at 120 min, 5 µM (P-gp (MDR1); LLC-PK1, pH 7.4, with 5 µM GF120918 (elacridar), Papp BA, + 5 µM GF120918) [×10⁻⁶ cm/s]
1 | CSCC[C@@H]1NC(=O)CNC(=O)CNC(=O)[C@H](C)NC(=O)[C@H](C(C)C)NC(=O)CNC(=O)[C@H](CC(C)C)NC(=O)[C@@H]2CCCN2C(=O)[C@H](CC(=O)O)NC(=O)[C@H](CCC(=O)O)NC(=O)[C@H](Cc2ccc(O)cc2)NC(=O)[C@H](CC(C)C)NC(=O)[C@H]2CCCN2C(=O)[C@@H]2CCCN2C(=O)CNC1=O [CP3] | 2.78 ± 0.26 | 2010 ± 540 | 1710 ± 190 | 27.1 ± 2.79 |  |  |  |  |  |  |  | 
2 | CSCC[C@@H]1NC(=O)CNC(=O)CNC(=O)[C@H](C)NC(=O)[C@H](C(C)C)NC(=O)CNC(=O)[C@H](CC(C)C)NC(=O)[C@@H]2CCCN2C(=O)[C@H](CC(=O)O)NC(=O)[C@H](CCC(=O)O)NC(=O)[C@H](Cc2ccc(O)cc2)NC(=O)[C@H](CC(C)C)NC(=O)[C@H]2CCCN2C(=O)CNC(=O)CNC1=O [CP6] | 2.74 ± 0.9 | 1470 ± 320 | 1090 ± 200 | 13.5 ± 2.17 |  |  |  |  |  |  |  | 
3 | CSCC[C@@H]1NC(=O)CNC(=O)CNC(=O)[C@H](C)NC(=O)[C@H](C(C)C)NC(=O)CNC(=O)[C@H](CC(C)C)NC(=O)[C@@H]2CCCN2C(=O)[C@H](CC(=O)O)NC(=O)[C@H](CCCNC(=N)N)NC(=O)[C@H](Cc2ccc(O)cc2)NC(=O)[C@@H](NC(=O)CCC(=O)O)CSSC[C@@H](C(N)=O)NC1=O [CP11] | 8.52 ± 0.39 | 4990 ± 600 | 4100 ± 760 | 7.78 ± 2.63 |  |  |  |  |  |  |  | 
4 | CSCC[C@@H]1NC(=O)[C@H](CCC(=O)O)NC(=O)CNC(=O)[C@H](C)NC(=O)[C@H](C(C)C)NC(=O)CNC(=O)[C@H](CC(C)C)NC(=O)[C@@H]2CCCN2C(=O)[C@H](CC(=O)O)NC(=O)[C@H](CCCNC(=N)N)NC(=O)[C@H](Cc2ccc(O)cc2)NC(=O)[C@@H](NC(=O)CCC(=O)O)CSSC[C@@H](C(N)=O)NC1=O [CP13] | 39.4 ± 8.32 | 12790 ± 90 | 11800 ± 2610 | 39.8 ± 12.2 |  |  |  |  |  |  |  | 
5 | CSCC[C@@H]1NC(=O)CNC(=O)CNC(=O)[C@H](C)NC(=O)[C@H](C(C)C)NC(=O)CNC(=O)[C@H](CC(C)C)NC(=O)[C@@H]2CCCN2C(=O)[C@H](CC(=O)O)NC(=O)[C@H](CCC(=O)O)NC(=O)[C@H](Cc2ccc(O)cc2)NC(=O)[C@H](CC(C)C)NC(=O)CNC1=O [CP14] | 1.24 ± 0.03 | 1240 ± 150 | 1720 ± 240 | 10 ± 0.91 | 96.5 | 0.11 | 0.12 ± 0.01 | 0.11 ± 0.01 | 0.26 ± 0.04 | 0.32 ± 0.05 | 0.25 ± 0.01 | 0.33 ± 0.05
6 | CSCC[C@@H]1NC(=O)CNC(=O)CNC(=O)[C@H](C)NC(=O)[C@H](C(C)C)NC(=O)CNC(=O)[C@H](CC(C)C)NC(=O)[C@@H]2CCCN2C(=O)[C@H](CC(=O)O)NC(=O)[C@H](CCC(=O)O)NC(=O)[C@H](Cc2ccc(O)cc2)NC(=O)[C@H](CC(C)C)NC(=O)[C@H](CO)NC(=O)[C@@H]2CCCN2C(=O)[C@H]2CCCN2C(=O)[C@H](C(C)C)NC(=O)CNC1=O [CP2] | 21.9 ± 3.24 | 12700 ± 1640 | 5130 | 55.1 |  |  |  |  |  |  |  | 
7 | CC[C@H]1NC(=O)[C@H](C(C)C)NC(=O)CNC(=O)C(CCCc2ccccc2)NC(=O)[C@@H]2CCCN2C(=O)[C@H](CC(=O)O)NC(=O)[C@H](CCC(=O)O)NC(=O)[C@H](Cc2ccc(O)cc2)NC(=O)[C@H](CC(C)C)NC(=O)[C@H]2CCCN2C(=O)CNC(=O)CNC(=O)[C@H](CCSC)NC(=O)CNC(=O)CNC1=O (stereo partly drawn) [CP7] (cyclo([dP]LYEDP[ξhhPhe]GV[dAbu]GGMGG)) | 3.54 ± 0.31 | 220 ± 10 | 360 ± 10 | 14.8 ± 0.57 |  |  |  |  |  |  |  | 
